This passage reports EC50 results from patent publication US11370785B2, “Multicyclic compounds as farnesoid X receptor modulators” (BRISTOL-MYERS SQUIBB COMPANY, priority 2017, dated 2022).

Each structure is given as a SMILES string.

For the experiment, the target named is T1, human FXR (Homo sapiens, UniProt Q96RI1).
T1 construct: expressed in transfected cells; host or cells: HEK293 cells stably carrying a 5xGal4-response-element firefly luciferase reporter, transiently transfected with the pcDNA3.1-Gal4-FXR plasmid
T1 sequence (Q96RI1 262-486 limits assumed): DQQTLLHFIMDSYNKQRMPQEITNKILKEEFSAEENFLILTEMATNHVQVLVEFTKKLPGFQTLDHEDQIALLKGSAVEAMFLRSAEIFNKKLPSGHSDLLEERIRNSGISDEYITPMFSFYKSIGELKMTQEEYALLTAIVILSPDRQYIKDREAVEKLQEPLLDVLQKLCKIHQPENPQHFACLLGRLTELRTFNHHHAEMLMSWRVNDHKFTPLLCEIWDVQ
The experiment in a line: transient human FXR/Gal4-luciferase reporter assay. In kind it is cell-based. Conditions: Gal4-hFXR reporter in HEK293 cells; relative to 8 μM GW-4064; read-out: FXR EC50. Summed up: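 HEK293 cells stably carrying a 5×Gal4-response-element firefly luciferase reporter, transiently transfected with a CMV-driven Gal4 DNA-binding domain–human FXR ligand-binding domain fusion, were treated overnight at 37 °C with serially diluted compounds. Luminescence was read by Steady-Glo; DMSO background was subtracted and signal expressed as percent of the 8 μM GW-4064 response.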
For orientation: In a reporter assay the amount or activity of a reporter protein is the signal.
For `O=C(O)c1cc(F)c2nc(N3CCC4(CC3)CC(=Cc3c(-c5ccncc5C(F)(F)F)noc3C3CC3)C4)sc2c1` [Example 127], the EC50 worked out at 198 nM.

For the compound `O=C(O)c1cc(C(F)(F)F)c2cc(N3CCC4(CC3)CC(=Cc3c(-c5ccncc5C(F)(F)F)noc3C3CC3)C4)ccc2n1` [Example 128], the half-maximal effective concentration (EC50) stood at 19 nM.

With `CCOC(=O)c1cc(C(F)(F)F)c2cc(N3CCC4(CC3)CC(Cc3c(-c5ccccc5C(F)(F)F)noc3C3CC3)C4)ccc2n1` [Example 129], the EC50 amounted to 125 nM.

On to `O=C(O)c1cc(F)c2nc(N3CCC4(CC3)CC(=Cc3c(-c5c(Cl)cccc5Cl)noc3C3CC3)C4)sc2c1` [Example 130], for which the EC50 came out at 260 nM.

Turning to `O=C(O)c1cc(F)c2nc(N3CCC4(CC(=Cc5c(-c6c(Cl)cccc6Cl)noc5C5CC5)C4)C3)sc2c1` (stereo not shown) [Example 131], the EC50 was 72 nM.

On to `O=C(O)c1ccc(N2CCC3(CC(=Cc4c(-c5c(Cl)cccc5Cl)noc4C4CC4)C3)C2)nc1` (stereo not shown) [Example 132], for which the 50% effective concentration (EC50) came to 514 nM.

Regarding `O=C(O)c1cc(C(F)(F)F)c2cc(N3CCC4(CC3)CC(=Cc3c(-c5c(Cl)cccc5Cl)noc3C(F)(F)F)C4)ccc2n1` [Example 136], the EC50 was 27 nM.

Consider `O=C(O)c1cc(OC2COC2)c2cc(N3CCC4(CC3)CC(=Cc3c(-c5ccccc5C(F)(F)F)noc3C3CC3)C4)ccc2n1` [Example 137], for which the EC50 was 78 nM.

With `O=C(O)c1cc(OC2COC2)c2cc(N3CCC4(CC3)CC(Cc3c(-c5ccccc5C(F)(F)F)noc3C3CC3)C4)ccc2n1` [Example 138], the EC50 is 23 nM.

Regarding `O=C(O)c1cc(OC2COC2)c2cc(N3CCC4(CC3)CC(=Cc3c(-c5c(Cl)cncc5Cl)noc3C3CC3)C4)ccc2n1` [Example 139], the half-maximal effective concentration (EC50) turned out to be 47 nM.

With `COc1cc(C(=O)O)nc2ccc(N3CCC4(CC3)CC(=Cc3c(-c5c(Cl)cccc5Cl)noc3C(F)(F)F)C4)cc12` [Example 140], the EC50 was found to be 4 nM.

As for `CCOc1cc(C(=O)O)ncc1N1CCC2(CC1)CC(=Cc1c(-c3ccccc3C(F)(F)F)noc1C1CC1)C2` [Example 141], the concentration giving a half-maximal response (EC50) was found to be 442 nM.

As for `CCOc1cc(C(N)=O)ncc1N1CCC2(CC1)CC(=Cc1c(-c3ccccc3C(F)(F)F)noc1C1CC1)C2` [Example 142], the EC50 is 189 nM.

As to `CCOc1cc(C(N)=O)ncc1N1CCC2(CC1)CC(Cc1c(-c3ccccc3C(F)(F)F)noc1C1CC1)C2` [Example 144], the EC50 came out at 327 nM.

On to `O=C(O[C@@H]1O[C@H](C(=O)O)[C@@H](O)[C@H](O)[C@H]1O)c1cc(C(F)(F)F)c2cc(N3CCC4(CC3)CC(Cc3c(-c5ccccc5C(F)(F)F)noc3C3CC3)C4)ccc2n1` [Example 145, (2S,3S,4S,5R,6S)-6-((6-(2-((5-Cyclopropyl-3-(2-(trifluoromethyl)phenyl)isoxazol-4-yl)methyl)-7-azaspiro[3.5]nonan-7-yl)-4-(trifluoromethyl)quinoline-2-carbonyl)oxy)-3,4,5-trihydroxytetrahydro-2H-pyran-2-carboxylic acid], for which the EC50 worked out at 36 nM.

Turning to `CCOc1cc(C(N)=O)ncc1N1CCC2(CC1)CC(=Cc1c(-c3c(Cl)cncc3Cl)noc1C1CC1)C2` [Example 146], the EC50 is 112 nM.

Consider `CC(O)Cc1cc(C(=O)O)nc2ccc(N3CCC4(CC3)CC(Cc3c(-c5ccccc5C(F)(F)F)noc3C3CC3)C4)cc12` (stereo not shown) [Example 147], for which the EC50 came out at 160 nM.

As for `O=C(O)c1cc(OCC(F)F)c2cc(N3CCC4(CC3)CC(=Cc3c(-c5ccccc5C(F)(F)F)noc3C3CC3)C4)ccc2n1` [Example 148], the EC50 stood at 4 nM.

Turning to `O=C(O)c1cc(OCC(F)F)c2cc(N3CCC4(CC3)CC(Cc3c(-c5ccccc5C(F)(F)F)noc3C3CC3)C4)ccc2n1` [Example 149], the EC50 was 6 nM.

For the compound `O=C(O)c1cc(F)c2nc(N3CCC4(CC3)CC(=Cc3c(-c5c(Cl)cncc5Cl)noc3C(F)(F)F)C4)sc2c1` [Example 150], the EC50 amounted to 110 nM.

Turning to `O=C(O)c1cc(OC2CCOC2)c2cc(N3CCC4(CC3)CC(Cc3c(-c5ccccc5C(F)(F)F)noc3C3CC3)C4)ccc2n1` (stereo not shown) [Example 151], the EC50 is 12 nM.

Regarding `O=C(O)c1cc(O[C@H]2CCOC2)c2cc(N3CCC4(CC3)CC(Cc3c(-c5ccccc5C(F)(F)F)noc3C3CC3)C4)ccc2n1` [Example 152], the concentration giving a half-maximal response (EC50) worked out at 6 nM.

Regarding `O=C(O)c1cc(C(F)(F)F)c2cc(N3CCC4(CC3)CC(=Cc3c(-c5c(Cl)cncc5Cl)noc3C(F)(F)F)C4)ccc2n1` [Example 153], the EC50 was determined as 26 nM.

Turning to `O=C(O)c1cc(CO)c2cc(N3CCC4(CC3)CC(Cc3c(-c5ccccc5C(F)(F)F)noc3C3CC3)C4)ccc2n1` [Example 154], the EC50 is 326 nM.

Take `COCc1onc(-c2c(Cl)cncc2Cl)c1C=C1CC2(CCN(c3nc4c(F)cc(C(=O)O)cc4s3)CC2)C1` [Example 155]: the EC50 is 120 nM.

`O=C(O)c1ncc(N2CCC3(CC2)CC(Cc2c(-c4ccccc4C(F)(F)F)noc2C2CC2)C3)cc1C(F)(F)F` [Example 156]: the half-maximal effective concentration (EC50) came out at 1670 nM.

`O=C(O)c1ncc(N2CCC3(CC2)CC(=Cc2c(-c4ccccc4C(F)(F)F)noc2C2CC2)C3)cc1C(F)(F)F` [Example 157]: the EC50 was 2470 nM.

Consider `COCc1onc(-c2c(Cl)cncc2Cl)c1C=C1CC2(CCN(c3ccc4nc(C(=O)O)cc(C(F)(F)F)c4c3)CC2)C1` [Example 158], for which the EC50 was 33 nM.

In the case of `C=Cc1cncc(Cl)c1-c1noc(C2CC2)c1C=C1CC2(CCN(c3nc4c(F)cc(C(=O)O)cc4s3)CC2)C1` [Example 159], the EC50 was 350 nM.

As for `C=Cc1cncc(Cl)c1-c1noc(C2CC2)c1C=C1CC2(CCN(c3ccc4nc(C(=O)O)cc(C(F)(F)F)c4c3)CC2)C1` [Example 160], the EC50 turned out to be 37 nM.

Consider `COc1cc(C(=O)O)nc2ccc(N3CCC4(CC3)CC(=Cc3c(-c5c(Cl)cncc5Cl)noc3C(F)(F)F)C4)cc12` [Example 161], for which the EC50 turned out to be 27 nM.

As for `COCCOc1cc(C(=O)O)nc2ccc(N3CCC4(CC3)CC(=Cc3c(-c5c(Cl)cncc5Cl)noc3C(F)(F)F)C4)cc12` [Example 162], the EC50 was found to be 37 nM.

Turning to `O=C(O)c1cc(C(F)(F)F)cc(N2CCC3(CC2)CC(Cc2c(-c4ccccc4C(F)(F)F)noc2C2CC2)C3)n1` [Example 163], the EC50 is 1270 nM.

With `O=C(O)c1cc(OC2CCC2)c2cc(N3CCC4(CC3)CC(=Cc3c(-c5c(Cl)cncc5Cl)noc3C(F)(F)F)C4)ccc2n1` [Example 164], the concentration for a half-maximal effect (EC50) stood at 11 nM.

`C=Cc1cncc(C=C)c1-c1noc(C2CC2)c1C=C1CC2(CCN(c3nc4c(F)cc(C(=O)O)cc4s3)CC2)C1` [Example 165]: the EC50 amounted to 1700 nM.

For the compound `CCc1cncc(Cl)c1-c1noc(C2CC2)c1C=C1CC2(CCN(c3ccc4nc(C(=O)O)cc(C(F)(F)F)c4c3)CC2)C1` [Example 166], the EC50 was determined as 30 nM.

With `O=C(O)c1cc(C(F)(F)F)c2cc(N3CCC4(CC3)CC(=Cc3c(-c5ccccc5C(F)(F)F)noc3C(F)(F)F)C4)ccc2n1` [Example 167], the EC50 amounted to 47 nM.

Take `COc1cc(C(=O)O)nc2ccc(N3CCC4(CC3)CC(=Cc3c(-c5ccccc5C(F)(F)F)noc3C(F)(F)F)C4)cc12` [Example 168]: the EC50 was 23 nM.

As for `O=C(O)c1cc(F)c2nc(N3CCC4(CC3)CC(=Cc3c(-c5ccccc5C(F)(F)F)noc3C(F)(F)F)C4)sc2c1` [Example 169], the concentration giving a half-maximal response (EC50) was 650 nM.

For the compound `N#Cc1cnc(N2CCC3(CC2)CC(Cc2c(-c4c(Cl)cccc4Cl)noc2C2CC2)C3)s1` [Example 170], the concentration for a half-maximal effect (EC50) was found to be 1200 nM.

Take `NC(=O)c1cc(OC2CCC2)c2cc(N3CCC4(CC3)CC(Cc3c(-c5ccccc5C(F)(F)F)noc3C3CC3)C4)ccc2n1` [Example 171]: the EC50 is 450 nM.

As to `CN(C)C(=O)c1cc(OC2CCC2)c2cc(N3CCC4(CC3)CC(Cc3c(-c5ccccc5C(F)(F)F)noc3C3CC3)C4)ccc2n1` [Example 172, 4-Cyclobutoxy-6-(2-((5-cyclopropyl-3-(2-(trifluoromethyl)phenyl)isoxazol-4-yl)methyl)-7-azaspiro[3.5]nonan-7-yl)-N,N-dimethylquinoline-2-carboxamide], the EC50 stood at 69 nM.

As to `O=C(NC1CC1)c1cc(OC2CCC2)c2cc(N3CCC4(CC3)CC(Cc3c(-c5ccccc5C(F)(F)F)noc3C3CC3)C4)ccc2n1` [Example 173], the half-maximal effective concentration (EC50) was found to be 1370 nM.

Take `O=C(O)c1ccc(S(=O)(=O)N2CCC3(CC2)CC(Cc2c(-c4c(Cl)cccc4Cl)noc2C2CC2)C3)cc1` [Example 174]: the EC50 stood at 540 nM.

`COc1cc([N+](=O)[O-])ccc1S(=O)(=O)N1CCC2(CC1)CC(Cc1c(-c3c(Cl)cccc3Cl)noc1C1CC1)C2` [Example 175]: the EC50 turned out to be 1500 nM.

In the case of `CC(=O)Nc1ncc(S(=O)(=O)N2CCC3(CC2)CC(Cc2c(-c4c(Cl)cccc4Cl)noc2C2CC2)C3)s1` [Example 176], the EC50 came out at 840 nM.

Consider `NC(=O)c1cc(C(F)(F)F)c2cc(N3CCC4(CC3)CC(Cc3c(-c5ccccc5C(F)(F)F)noc3C3CC3)C4)ccc2n1` [Example 177], for which the 50% effective concentration (EC50) was 2240 nM.

For `CN(C)C(=O)c1cc(C(F)(F)F)c2cc(N3CCC4(CC3)CC(Cc3c(-c5ccccc5C(F)(F)F)noc3C3CC3)C4)ccc2n1` [Example 178], the EC50 is 154 nM.

Regarding `CC(=O)N1CCc2cc(N3CCC4(CC3)CC(=Cc3c(-c5ccccc5OC(F)(F)F)noc3C3CC3)C4)ccc2C1` [Example 179, 1-(6-(2-((5-Cyclopropyl-3-(2-(trifluoromethoxy)phenyl)isoxazol-4-yl)methylene)-7-azaspiro[3.5]nonan-7-yl)-3,4-dihydroisoquinolin-2(1H)-yl)ethan-1-one], the EC50 was found to be 1600 nM.

As a reminder, the EC50 is the concentration that produces a half-maximal response.
